In US11046647B2, “Activators of the unfolded protein response” (The Board of Trustees of the University of Illinois, priority 2018, dated 2021):

Columns and labels:
parental T47D cells = assay: MTS growth assay, parental T47D cells; type: cell-based, human; conditions: 100 nM and 1 μM; 4 days
Experimental: ERα containing T47D human breast cancer cells able to survive in 1 μM BHPI were selected by clonal outgrowth. The effect of 100 nM and 1 μM BHPI and (−)-105 on growth of the (BHPI-sensitive) parental T47D cells and partially BHPI-resistant T47D clones 1,3,8, and 11 was evaluated. 4,000 cells/well were plated. Cell number was determined by MTS assay from a standard curve of absorbance versus cell number. […] Thus, in 4 days (−)-105 killed some, but not all, of the resistant cells.

T47D cells = conditions: 100, 500 and 1,000 nM; 24 hours; n=1
Experimental: One such change is loss of plasma membrane polarity. This is monitored using Annexin V. Dying cells also take up the dye propidium iodide. Propidium iodide (PI) fluoresces when it is intercalated into DNA. These assays monitor cells at specific stages of cell death.
FLOW CYTOMETRY (FITC) ASSAYS: Cells were seeded in 12-well plates, 75,000 cells/well, and allowed to adhere overnight. The next day, the indicated concentrations of raptinal (positive control), (−)-105, (±)-105, and (+)-105 were added and allowed to incubate at 37° C. for 24 hours (Final Volume: 1 ml, 0.1% DMSO). After incubation, cells were harvested and resuspended in 350 μl of cold Annexin binding buffer (10 mM HEPES, 140 mM NaCl, 2.5 mM CaCl2, pH 7.4) premixed with Annexin V-FITC and PI dyes. Samples were analyzed on a BD Biosciences LSRII flow cytometer, and data analysis was performed using FSC Express Version 5-6. Cell death was assessed relative to a DMSO treated control.
T47D, human breast cancer cells were plated at 75,000 cells/well. The next day, DMSO vehicle, 10 μM raptinal (control for 100% cell death), or 0, 50, 100 500 and 1,000 nM of BHPI or (±)-105, or 1,000 nM ICI/fulvestrant or 1,000 nM OHT was added. After 24 hours viable cells were determined by FACS using annexin V-FITC and propidium iodide dyes. (n=3 independent experiments ±SEM).
75,000 ERα positive T47D, human breast cancer cells, were plated/well. The next day, DMSO vehicle, 10 μM raptinal (control for 100% cell death), or 100 500 and 1,000 nM of (+)-105, or (−)-105 was added. After 24 hours viable cells were determined by FACS using annexin V-FITC and propidium iodide dyes. (n=1).

MCF-7 tumors = assay: MCF-7 orthotopic tumor model; type: in vivo, mouse
Experimental: FIG. 39. SERK-F6 eradicates wild-type ERα tumors via hyperactivation of aUPR. a, MCF-7 orthotopic tumors were established in Nu/J ovariectomized mice supplemented with a 60 day E2 pellet (0.36 mg) and grown to ˜400 mm^3 (28 days to establish), randomized, then treated with vehicle daily (n=3), vehicle weekly (n=3), fulv. weekly (5 mg/mouse, s.c., n=6), SERK-F6 daily (10 or 40 mg/kg p.o.). Vehicle arms were averaged. p values: *: p≤0.05, **: p≤0.01, ***: p≤0.001, ****: p≤0.0001. Tumor images were taken at the end of the study (day 21) and are representative of all tumors (n=6). b-e, MCF-7 cells were orthotopically bi-laterally grafted and tumors were grown until total tumor burden was ˜400 mm^3 prior to daily treatment with vehicle or SERK-F6 (40 mg/kg p.o.). Mice (n=5 per arm) were sacrificed after 3 days (b,c) and 7 days (d,e) and tumors harvested. […] Vinculin (Vin) was used as a loading control. […] Error bars represent S.E.M.
To probe the efficacy of SERK-F6 for killing ERα positive tumors, large MCF-7 tumors were grown and then intervened with therapy. […] The mice were then sacrificed prior to complete tumor eradication.

[1] = system: protein synthesis in Caov-3 cells; assay: Protein synthesis inhibition (35S-methionine incorporation), Caov-3; type: cell-based, human; conditions: 1,000 nM
Experimental: ERα positive Caov-3, human ovarian cancer cells, were treated for the indicated times with 1,000 nM BHPI or 1,000 nM (−)-105. Cells were briefly labeled with ^35S-methionine. Incorporation of labeled ^35S-methionine into protein was determined by trichloroacetic acid precipitation and trapping of precipitated protein, but not free amino acids, in small Whatman hardened ashless filters. After solubilizing the protein in the filters with base and neutralization with acid, the samples were counted in a liquid scintillation counter. Shown is the average (n≥3) percent inhibition of protein synthesis compared to the 0-time sample. The near quantitative inhibition of protein synthesis by (−)-105 is consistent with (−)-105 inducing lethal hyperactivation of the PERK arm of the UPR. Even non-growing cells are constantly degrading protein and making new proteins. Cells in which nearly all (>90%) of protein synthesis is inhibited cannot grow and will ultimately die.

[2] = system: sp-XBP1 mRNA (unfolded protein response); assay: Induction of spliced XBP-1 mRNA (qRT-PCR), T47D-luciferase cells; type: cell-based, human; conditions: 100 nM
Experimental: ERα positive T47D-luciferase human breast cancer cells, were maintained for the indicated times in vehicle (Ctl, Control), 100 nM BHPI or 100 nM (−)-105. At the indicated times RNA was isolated and levels of sp-XBP1 mRNA quantitated by qRT-PCR. (n=3 ±SEM).

In the case of `O=C1Nc2c(C(F)(F)F)cccc2C1(c1ccc(O)cc1)c1ccc(OC(F)(F)F)cc1` (single isomer, unassigned; (-)) [(−)-105, 3-(4-hydroxyphenyl)-3-(4-(trifluoromethoxy)phenyl)-7-(trifluoromethyl)indolin-2-one], the “effect on growth / cell number” value (parental T47D cells) is reported as “killed all the T47D cells”, the “activity of enantiomers (cell death)” value (T47D cells) is reported as “active” and the “UPR markers in tumors (western blot)” value (MCF-7 tumors; 40 mg/kg p.o., 3 and 7 days) is reported as “increases in P-PERK and P-eiF2alpha levels”. For the same compound, the “murine weight during the study” value (MCF-7 tumors; daily treatment) was “did not lead to any change in murine weight”, the tumor response (MCF-7 tumors; large established MCF-7 tumors, SERK-F6 10 or 40 mg/kg p.o. daily, fulv. 5 mg/mouse s.c. weekly) was “dramatic tumor regressions” and the “inhibition of the synthesis of new proteins” value [1] was “near-quantitative”. For the same compound, the “UPR activation / induction of sp-XBP1” value [2] was “much stronger UPR hyper-activator and inducer of sp-XBP1 than BHPI”.
